In brackets after ≈: the same amount, converted by molar mass. Some results are limits rather than exact numbers.

The values below come from PMC9781117, “New 5-Aryl-1,3,4-Thiadiazole-Based Anticancer Agents: Design, Synthesis, In Vitro Biological Evaluation and In Vivo Radioactive Tracing Studies” (Pharmaceuticals, 2022).

For series [1], the system named is MCF-7 breast adenocarcinoma cells. Briefly: MTT cytotoxicity assay, MCF-7. The settings on record: for fold increase in activity relative to parent analogue: MCF-7, 4d vs 4c, 5b, 5c, 5d vs 5a; for IC50 MCF-7 / IC50: MTT, 48 h, means ± SD of three independent experiments; for IC50: Homo sapiens, MCF7. It is filed as cell-based, human. The protocol: (§1) The in vitro cytotoxicity of the synthesized 1,3,4-thiadiazole derivatives against breast adenocarcinoma cells (MCF-7) and human hepatocellular carcinoma (HepG2) cell lines were evaluated by the MTT assay, using 5-Fluorouracil (5-FU) as a positive control.
(§2) Human hepatocellular carcinoma (HepG2) cells and breast adenocarcinoma (MCF7) cells were purchased from the American Type Culture Collection (ATCC, USA). Under 37 °C with 5% CO2 in a humid incubator, cells were propagated using RPMI supplemented with 10% fetal bovine serum (FBS) and 1% v/v penicillin-streptomycin.
(§3) According to Tim Mosmann’s approach, an MTT assay was performed to assess the antiproliferative properties of the compounds. In short, HepG2 or MCF7 cells (0.5 × 105) were grown in flat-bottom 96-well microplates in 180 μL/well RPMI media supplemented with 10% fetal bovine serum, 2μmol/mL L-glutamine, 250 ng/mL fungizone, and 100 units/mL penicillin-streptomycin solutions at 37 °C in a CO2 incubator. Following incubation, 180 μL/well of the new serum-free medium was added to each well after the old media had been withdrawn. After that, cells were exposed to 20 μL of various concentrations of the compounds (50–0.75 μg/mL) and were incubated for 48 h at 37 °C in a humidified 5% CO2 environment. The MTT solution (20 µL/well) was added and incubated for a further 4 h. The plate was agitated at room temperature while acidified isopropanol (160 μL/well) was added to dissolve the formazan crystals. The absorbance at 570 nm was then determined photometrically using the microplate ELISA reader (FLUOstar Omega, BMG, Labtech, Germany). Graph-Pad PRISM version 6 was used to determine the IC50 for each compound.

The test system of series [2] is HepG2 human hepatocellular carcinoma cells. Briefly: MTT cytotoxicity assay, HepG2. Format: cell-based. The following applies: MTT, 48 h, means ± SD of three independent experiments; for IC50: Homo sapiens, HepG2. The protocol:
as §1, §2, §3

Series [3] relates to breast cancer MCF-7 cells. Details: method as in PMID 22261027. The settings on record: cited from earlier work.

Consider “4-((4-((5-(4-Chlorophenyl)-1,3,4-Thiadiazol-2-yl)Imino)-4,5-Dihydrothiazol-2-yl)Amino)Phenol [Compound 5d]”, for which, in series [1], the “fold increase in activity relative to parent analogue” value is 2- to 4 fold and the “IC50 MCF-7” value was found to be 6.12 ± 0.51 µg/mL. The “IC50 HepG2” value in series [2] is 14.12 ± 0.01 µg/mL.

As for “4-((5-(4-Chlorophenyl)-1,3,4-Thiadiazol-2-yl)Imino)-N-(4-Ethylphenyl)-4,5-Dihydrothiazol-2-Amine [Compound 5c]”, in series [1], the “fold increase in activity relative to parent analogue” value is 2- to 4 fold and the “IC50 MCF-7” value was determined as 5.72 ± 0.17 µg/mL. In addition, the “IC50 HepG2” value in series [2] amounted to 11.25 ± 0.44 µg/mL.

Take “4-((5-(4-Chlorophenyl)-1,3,4-Thiadiazol-2-yl)Imino)-N-(4-Tolyl)-4,5-Dihydrothiazol-2-Amine [Compound 5b]”: in series [1], the “fold increase in activity relative to parent analogue” value is 2- to 4 fold and the “IC50 MCF-7” value was found to be 12.64 ± 0.47 µg/mL. Moreover, in series [2], the “IC50 HepG2” value stood at 8.81 ± 0.64 µg/mL.

For “4-((5-(4-Chlorophenyl)-1,3,4-Thiadiazol-2-yl)Imino)-N-Phenyl-4,5-Dihydrothiazol-2-Amine [Compound 5a]”, the “IC50 MCF-7” value in series [1] is given as 24.79 ± 2.30 µg/mL. Moreover, the “IC50 HepG2” value in series [2] was 26.12 ± 2.02 µg/mL.

On to `O=C(C[n+]1ccccc1)Nc1nnc(-c2ccc(Cl)cc2)s1.[Cl-]` [Compound 3, 1-(2-((5-(4-Chlorophenyl)-1,3,4-Thiadiazol-2-yl)Amino)-2-Oxoethyl)Pyridinium Chloride], for which the IC50 was 7.56 ± 1.2 µg/mL in series [1] and 13 ± 0.11 µg/mL in series [2].

In turn, `CN1CCN(CC(=O)Nc2nnc(-c3ccc(Cl)cc3)s2)CC1` [Compound 4a, N-(5-(4-Chlorophenyl)-1,3,4-Thiadiazol-2-yl)-2-(4-Methylpiperazin-1-yl)Acetamide] gave a melting point of 168 to 170 °C. The same compound came in with an IC50 in series [1] of 51.56 ± 0.48 µg/mL (≈ 147 µM). In addition, it took 26.3 ± 5.76 µg/mL (≈ 74.7 µM) to reach half-maximal inhibition in series [2] (IC50).

Take `CCN1CCN(CC(=O)Nc2nnc(-c3ccc(Cl)cc3)s2)CC1` [Compound 4b, N-(5-(4-Chlorophenyl)-1,3,4-Thiadiazol-2-yl)-2-(4-Ethylpiperazin-1-yl)Acetamide]: the IC50 in series [1] stood at 25.2 ± 1.3 µg/mL (≈ 68.9 µM); in series [2], 3.55 ± 0.05 µg/mL (≈ 9.7 µM).

As for `O=C(CN1CCN(c2ccccc2)CC1)Nc1nnc(-c2ccc(Cl)cc2)s1` [Compound 4c, N-(5-(4-Chlorophenyl)-1,3,4-Thiadiazol-2-yl)-2-(4-Phenylpiperazin-1-yl)Acetamide], the half-inhibitory concentration (IC50) came to 49.4 ± 3.5 µg/mL (≈ 119 µM) in series [1] and 27.9 ± 0.93 µg/mL (≈ 67.5 µM) in series [2].

`Cc1ccc(N2CCN(CC(=O)Nc3nnc(-c4ccc(Cl)cc4)s3)CC2)cc1` [Compound 4d, N-(5-(4-Chlorophenyl)-1,3,4-Thiadiazol-2-yl)-2-(4-(4-Tolyl)Piperazin-1-yl)Acetamide] yielded a melting point of 222 to 224 °C. In addition, in series [1], the IC50 is 21.8 ± 0.43 µg/mL (≈ 50.8 µM) and the “fold increase in activity relative to parent analogue” value is given as more than 2 fold. This compound returned an IC50 in series [2] of 44.9 ± 1.54 µg/mL (≈ 105 µM).

Consider `CCOc1ccc(N2CCN(CC(=O)Nc3nnc(-c4ccc(Cl)cc4)s3)CC2)cc1` [Compound 4f, N-(5-(4-Chlorophenyl)-1,3,4-Thiadiazol-2-yl)-2-(4-(4-Ethoxyphenyl)Piperazin-1-yl)Acetamide], for which the melting point fell in the range of 225 to 227 °C. In addition, the IC50 in series [1] is 18.4 ± 0.85 µg/mL (≈ 40.2 µM). The same compound gave an IC50 in series [2] of 38.1 ± 0.14 µg/mL (≈ 83.2 µM).

With `O=C(CN1CCN(c2ccc(F)cc2)CC1)Nc1nnc(-c2ccc(Cl)cc2)s1` [Compound 4g, N-(5-(4-Chlorophenyl)-1,3,4-Thiadiazol-2-yl)-2-(4-(4-Fluorophenyl)Piperazin-1-yl)Acetamide], the figures for the concentration for half-maximal inhibition (IC50) in series [1] and in series [2] were 10.1 ± 1.2 µg/mL (≈ 23.4 µM) and 13.9 ± 0.59 µg/mL (≈ 32.1 µM), respectively.

Turning to `O=C(CN1CCN(C(=O)c2ccco2)CC1)Nc1nnc(-c2ccc(Cl)cc2)s1` [Compound 4h, N-(5-(4-Chlorophenyl)-1,3,4-Thiadiazol-2-yl)-2-(4-(Furan-2-Carbonyl)Piperazin-1-yl)Acetamide], the half-inhibitory concentration (IC50) came to 3.21 ± 0.3 µg/mL (≈ 7.43 µM) in series [1] and 8.35 ± 0.15 µg/mL (≈ 19.3 µM) in series [2].

Turning to `O=c1[nH]cc(F)c(=O)[nH]1` [Compound 5-FU, 5-Fluorouracil, reference compound], the IC50 in series [1] was 6.8 ± 0.9 µg/mL (≈ 52.3 µM); in series [2] it was 8.4 ± 1.2 µg/mL (≈ 64.6 µM).

Regarding `COc1ccc(/C=C/C(=O)Nc2nnc(-c3ccc(OC)cc3)s2)cc1` [II], in series [3], the “IC50 MCF-7 growth inhibition” value is recorded as 0.28 µg/mL (≈ 0.762 µM) and the “cell cycle effect in MCF-7 cells” value is on record as “cell cycle arrest at the G2/M phase”.

Turning to “N-(4-Bromophenyl)-4-((5-(4-Chlorophenyl)-1,3,4-Thiadiazol-2-yl)Imino)-4,5-Dihydrothiazol-2-Amine [Compound 5e]”, the “IC50 MCF-7” value in series [1] amounted to 3.77 ± 0.13 µg/mL. Besides, the “IC50 HepG2” value in series [2] was found to be 25.77 ± 0.64 µg/mL.
